ChEMBL document CHEMBL1146631, “Design and synthesis of novel CCR3 antagonists” (Bioorg Med Chem Lett, 2003)

Tests used:
[1] = target: T1, C-C chemokine receptor type 3 (Homo sapiens, UniProt P51677); assay: Binding affinity was determined towards C-C chemokine receptor type 3 using [125I]-labeled eotaxin as radioligand
T1 sequence (P51677 whole entry): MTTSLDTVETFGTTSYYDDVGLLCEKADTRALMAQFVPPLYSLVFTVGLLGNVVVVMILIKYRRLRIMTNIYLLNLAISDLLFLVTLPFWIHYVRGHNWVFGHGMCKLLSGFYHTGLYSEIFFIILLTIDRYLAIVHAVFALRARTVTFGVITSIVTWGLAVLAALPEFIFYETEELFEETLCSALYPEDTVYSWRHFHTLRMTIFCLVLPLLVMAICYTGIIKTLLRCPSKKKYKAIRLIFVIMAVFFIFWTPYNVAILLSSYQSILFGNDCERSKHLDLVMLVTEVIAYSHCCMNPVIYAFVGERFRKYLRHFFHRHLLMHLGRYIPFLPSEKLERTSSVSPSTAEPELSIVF

[2] = Plasma clearance in rat by iv administration; type: ADME, organism-based
[3] = Half-life period in rat by iv administration; type: ADME, organism-based; conditions: in vivo
[4] = Volume of distribution in rat by iv administration; type: ADME, organism-based; conditions: in vivo
[5] = target: T1, C-C chemokine receptor type 3; assay: Compound was tested for its ability to inhibit C-C chemokine receptor type 3 receptor
[6] = test system: Rattus norvegicus; assay: Area under curve in rat by po administration at 0-24 hr; type: ADME, organism-based; design: time < 24 hr, route oral; conditions: in vivo

| SMILES | IC50 [1] | IC50 [5] | also measured |
| --- | --- | --- | --- |
| COc1cc(NC(=O)NC(CC2CCN(Cc3ccc(Cl)c(Cl)c3)CC2)C(C)C)cc(OC)c1OC (stereo not drawn) | 500 nM | – | – |
| Cc1ccc(C(=O)NC(CC2CCC(Cc3ccc(Cl)c(Cl)c3)CC2)C(C)C)cc1 (stereo not drawn) | > 200000 nM | – | – |
| Cc1ccc(C(=O)NC(CN2C3CCC2CC(Cc2ccc(Cl)c(Cl)c2)C3)C(C)C)cc1 (stereo not drawn) | 1800 nM | – | clearance [2]: 118 mL/min/kg; half-life [3]: 3.5 h; Vd [4]: 30.1 L/kg |
| Cc1ccc(C(=O)NC(CN2CC3CCC2CC3Cc2ccc(Cl)c(Cl)c2)C(C)C)cc1 (stereo not drawn) | 5300 nM | – | – |
| C[C@H](O)[C@H](CN1C2CCC1CC(Cc1ccc(Cl)cc1)C2)NC(=O)Nc1cccc(S(C)(=O)=O)c1 (stereo partly drawn) | 12 nM | 4.4 nM | AUC [6]: 710 ng·h/mL |
| Cc1ccc(C(=O)NC(CC2CCN(Cc3ccc(Cl)c(Cl)c3)CC2)C(C)C)cc1 (stereo not drawn) | 1700 nM | – | – |
| Cc1ccc(C(=O)NC(CC2CCN(Cc3ccccc3)CC2)C(C)C)cc1 (stereo not drawn) | > 200000 nM | – | – |
| Cc1ccc(C(=O)NC(CC2CCN(Cc3ccc([N+](=O)[O-])cc3)CC2)C(C)C)cc1 (stereo not drawn) | 8500 nM | – | – |
| Cc1ccc(C(=O)NC(CN2CCC(Cc3ccc(Cl)c(Cl)c3)CC2)C(C)C)cc1 (stereo not drawn) | 500 nM | – | – |
| C[C@H](CN1C2CCC1CC(Cc1ccc(Cl)cc1)C2)NC(=O)Nc1cccc(S(C)(=O)=O)c1 (stereo partly drawn) | 65 nM | 12 nM | – |
| Cc1ccc(C(=O)NC(CC2CCN(Cc3ccc(C)c(C)c3)CC2)C(C)C)cc1 (stereo not drawn) | 7800 nM | – | – |
| COc1cc(NC(=O)N[C@@H](CN2C3CCC2CC(Cc2ccc(Cl)cc2)C3)[C@H](C)O)cc(OC)c1OC (stereo partly drawn) | 8.2 nM | 2.4 nM | AUC [6]: 190 ng·h/mL |
| COc1cc(NC(=O)N[C@H](C)CN2C3CCC2CC(Cc2ccc(Cl)cc2)C3)cc(OC)c1OC (stereo partly drawn) | 11 nM | 4.7 nM | AUC [6]: 280 ng·h/mL |
